Assay results reported in ChEMBL document CHEMBL1201862, “PubChem BioAssay data set” (2004).
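All cell lines were grown in 96-well plates and treated with compound for 48 hours. Here, GI50 denotes the concentration required for 50% inhibition of growth.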 The source made the active and inactive calls. Rule as the data show it: active = GI50 up to about 1.1 µM and inactive = higher.

Tests used:
Experiment in all cases: inhibition of tumour cell growth, NCI panel, 48 h
LOX IMVI = system: LOX IMVI
K562 = system: K562
RPMI-8226 = system: RPMI-8226
SN12C = system: SN12C
HT-29 = system: HT-29
HOP-62 = system: HOP-62
KM12 = system: KM12
SK-MEL-2 = system: SK-MEL-2
IGROV-1 = system: IGROV-1
NCI-H522 = system: NCI-H522
HCC 2998 = system: HCC 2998
SF-268 = system: SF-268
OVCAR-5 = system: OVCAR-5
NCI-H460 = system: NCI-H460
NCI-H226 = system: NCI-H226
SNB-19 = system: SNB-19
SK-OV-3 = system: SK-OV-3
SW-620 = system: SW-620

Cc1ccc(CCNC(=S)SCC(NC(=O)CCC(N)C(=O)O)C(=O)NCC(=O)O)cc1 (stereo not drawn)
GI50 (LOX IMVI): 0.388 µM (active)
GI50 (K562): 0.398 µM (active)
GI50 (RPMI-8226): 0.288 µM (active)
GI50 (SN12C): 1.76 µM (inactive)
GI50 (HT-29): 1.46 µM (inactive)
GI50 (HOP-62): 2.96 µM (inactive)
GI50 (KM12): 0.533 µM (active)
GI50 (SK-MEL-2): 0.385 µM (active)
GI50 (IGROV-1): 2.11 µM (inactive)
GI50 (NCI-H522): 0.327 µM (active)
GI50 (HCC 2998): 2.04 µM (inactive)
GI50 (SF-268): 2.7 µM (inactive)
GI50 (OVCAR-5): 2.51 µM (inactive)
GI50 (NCI-H460): 2.61 µM (inactive)
GI50 (NCI-H226): 2.26 µM (inactive)
GI50 (SNB-19): 2.17 µM (inactive)
GI50 (SK-OV-3): 7.4 µM (inactive)
GI50 (SW-620): 0.767 µM (active)

C=CCCCCCCCCCP(=O)(c1ccccc1)c1ccc2c(c1)OCCOCCOCCOCCO2 (stereo not drawn)
GI50 (LOX IMVI): 15.3 µM (inactive)
GI50 (K562): 9.42 µM (inactive)
GI50 (RPMI-8226): 11.7 µM (inactive)
GI50 (SN12C): 16.3 µM (inactive)
GI50 (HT-29): 12.2 µM (inactive)
GI50 (HOP-62): 16.6 µM (inactive)
GI50 (KM12): 12.8 µM (inactive)
GI50 (SK-MEL-2): 18 µM (inactive)
GI50 (IGROV-1): 16 µM (inactive)
GI50 (NCI-H522): 12.1 µM (inactive)
GI50 (HCC 2998): 17.3 µM (inactive)
GI50 (SF-268): 15.3 µM (inactive)
GI50 (OVCAR-5): 17.4 µM (inactive)
GI50 (NCI-H460): 13.2 µM (inactive)
GI50 (NCI-H226): 13.7 µM (inactive)
GI50 (SNB-19): 13.1 µM (inactive)
GI50 (SK-OV-3): 20.2 µM (inactive)
GI50 (SW-620): 16 µM (inactive)

COC(=O)/C(=C\c1ccc(N(CCC#N)CCC#N)cc1)NC(=O)c1cc([N+](=O)[O-])ccc1Cl
GI50 (LOX IMVI): > 100 µM (inactive)
GI50 (K562): > 100 µM (inactive)
GI50 (RPMI-8226): > 100 µM (inactive)
GI50 (SN12C): > 100 µM (inactive)
GI50 (HT-29): > 100 µM (inactive)
GI50 (HOP-62): > 100 µM (inactive)
GI50 (KM12): > 100 µM (inactive)
GI50 (SK-MEL-2): > 100 µM (inactive)
GI50 (IGROV-1): > 100 µM (inactive)
GI50 (NCI-H522): > 100 µM (inactive)
GI50 (HCC 2998): > 100 µM (inactive)
GI50 (SF-268): > 100 µM (inactive)
GI50 (OVCAR-5): > 100 µM (inactive)
GI50 (NCI-H460): > 100 µM (inactive)
GI50 (NCI-H226): > 100 µM (inactive)
GI50 (SNB-19): > 100 µM (inactive)
GI50 (SK-OV-3): > 100 µM (inactive)
GI50 (SW-620): > 100 µM (inactive)

CC1C(O)=C(O)c2ccccc2N1O (stereo not drawn)
GI50 (LOX IMVI): 82.2 µM (inactive)
GI50 (K562): 38.7 µM (inactive)
GI50 (RPMI-8226): 80.4 µM (inactive)
GI50 (SN12C): > 100 µM (inactive)
GI50 (HT-29): 12.2 µM (inactive)
GI50 (HOP-62): 73.3 µM (inactive)
GI50 (KM12): > 100 µM (inactive)
GI50 (SK-MEL-2): > 100 µM (inactive)
GI50 (IGROV-1): > 100 µM (inactive)
GI50 (NCI-H522): 25.1 µM (inactive)
GI50 (HCC 2998): > 100 µM (inactive)
GI50 (SF-268): > 100 µM (inactive)
GI50 (OVCAR-5): > 100 µM (inactive)
GI50 (NCI-H460): > 100 µM (inactive)
GI50 (NCI-H226): 37.4 µM (inactive)
GI50 (SNB-19): > 100 µM (inactive)
GI50 (SK-OV-3): > 100 µM (inactive)
GI50 (SW-620): 98.9 µM (inactive)

Cc1cc(N(CCC#N)CCC#N)ccc1/C=C(/NC(=O)/C=C/c1ccccc1)C(N)=O
GI50 (LOX IMVI): 97.5 µM (inactive)
GI50 (K562): 62.1 µM (inactive)
GI50 (RPMI-8226): > 100 µM (inactive)
GI50 (SN12C): > 100 µM (inactive)
GI50 (HT-29): > 100 µM (inactive)
GI50 (HOP-62): > 100 µM (inactive)
GI50 (KM12): > 100 µM (inactive)
GI50 (SK-MEL-2): > 100 µM (inactive)
GI50 (IGROV-1): > 100 µM (inactive)
GI50 (NCI-H522): 13.8 µM (inactive)
GI50 (HCC 2998): > 100 µM (inactive)
GI50 (SF-268): > 100 µM (inactive)
GI50 (OVCAR-5): > 100 µM (inactive)
GI50 (NCI-H460): > 100 µM (inactive)
GI50 (NCI-H226): > 100 µM (inactive)
GI50 (SNB-19): > 100 µM (inactive)
GI50 (SK-OV-3): > 100 µM (inactive)
GI50 (SW-620): > 100 µM (inactive)

OCC(O)C(O)C(O)c1nn(-c2ccccc2)c2nc3cc(Cl)c(Cl)cc3nc12 (stereo not drawn)
GI50 (LOX IMVI): 36.5 µM (inactive)
GI50 (K562): 18.6 µM (inactive)
GI50 (RPMI-8226): 25.4 µM (inactive)
GI50 (SN12C): 41.9 µM (inactive)
GI50 (HT-29): 24.4 µM (inactive)
GI50 (HOP-62): 42.1 µM (inactive)
GI50 (KM12): > 10 µM (inactive)
GI50 (SK-MEL-2): 33 µM (inactive)
GI50 (IGROV-1): 39.4 µM (inactive)
GI50 (NCI-H522): 27.5 µM (inactive)
GI50 (HCC 2998): 32.9 µM (inactive)
GI50 (SF-268): 55.1 µM (inactive)
GI50 (OVCAR-5): 28.6 µM (inactive)
GI50 (NCI-H460): 44.1 µM (inactive)
GI50 (NCI-H226): 36.5 µM (inactive)
GI50 (SNB-19): 74.6 µM (inactive)
GI50 (SK-OV-3): > 100 µM (inactive)
GI50 (SW-620): 88.9 µM (inactive)

Nc1c(C(=O)Nc2ccccc2)[n+]([O-])c2ccccc2[n+]1[O-]
GI50 (LOX IMVI): 12.3 µM (inactive)
GI50 (K562): 17.1 µM (inactive)
GI50 (RPMI-8226): 20.6 µM (inactive)
GI50 (SN12C): 14.8 µM (inactive)
GI50 (HT-29): 16.6 µM (inactive)
GI50 (HOP-62): 19.1 µM (inactive)
GI50 (KM12): 14.2 µM (inactive)
GI50 (SK-MEL-2): 15.8 µM (inactive)
GI50 (IGROV-1): 18.4 µM (inactive)
GI50 (NCI-H522): 2.09 µM (inactive)
GI50 (HCC 2998): 17.6 µM (inactive)
GI50 (SF-268): 25.1 µM (inactive)
GI50 (OVCAR-5): 22.5 µM (inactive)
GI50 (NCI-H460): 14.9 µM (inactive)
GI50 (NCI-H226): 23.9 µM (inactive)
GI50 (SNB-19): 15.5 µM (inactive)
GI50 (SK-OV-3): > 100 µM (inactive)
GI50 (SW-620): 15.2 µM (inactive)

CCCCCCNC(=O)CCN(C(=O)O)S(=O)(=O)c1ccc(NC(=O)c2ccccc2)cc1
GI50 (LOX IMVI): 25.1 µM (inactive)
GI50 (K562): > 48.2 µM (inactive)
GI50 (RPMI-8226): 26.4 µM (inactive)
GI50 (SN12C): > 100 µM (inactive)
GI50 (HT-29): > 86.1 µM (inactive)
GI50 (HOP-62): > 100 µM (inactive)
GI50 (KM12): > 57.4 µM (inactive)
GI50 (SK-MEL-2): > 100 µM (inactive)
GI50 (IGROV-1): > 100 µM (inactive)
GI50 (NCI-H522): > 20 µM (inactive)
GI50 (HCC 2998): > 100 µM (inactive)
GI50 (SF-268): > 78.9 µM (inactive)
GI50 (OVCAR-5): > 100 µM (inactive)
GI50 (NCI-H460): 27.6 µM (inactive)
GI50 (NCI-H226): > 100 µM (inactive)
GI50 (SNB-19): > 100 µM (inactive)
GI50 (SK-OV-3): > 100 µM (inactive)
GI50 (SW-620): 14.2 µM (inactive)

O=C1C2C3C=CC(C2C(=O)N1CN1CCSCC1)C1C2C(=O)N(CN4CCSCC4)C(=O)C2C31 (stereo not drawn)
GI50 (LOX IMVI): > 53.5 µM (inactive)
GI50 (K562): > 100 µM (inactive)
GI50 (RPMI-8226): 25.5 µM (inactive)
GI50 (SN12C): 97.9 µM (inactive)
GI50 (HT-29): > 74 µM (inactive)
GI50 (HOP-62): > 100 µM (inactive)
GI50 (KM12): > 100 µM (inactive)
GI50 (SK-MEL-2): > 100 µM (inactive)
GI50 (IGROV-1): > 100 µM (inactive)
GI50 (NCI-H522): > 100 µM (inactive)
GI50 (HCC 2998): > 100 µM (inactive)
GI50 (SF-268): > 50.4 µM (inactive)
GI50 (OVCAR-5): > 100 µM (inactive)
GI50 (NCI-H460): 31.2 µM (inactive)
GI50 (NCI-H226): > 100 µM (inactive)
GI50 (SNB-19): > 100 µM (inactive)
GI50 (SK-OV-3): > 100 µM (inactive)
GI50 (SW-620): 31.7 µM (inactive)

CN(C)CC1CC/C(=C\c2ccc(Cl)c(Cl)c2)C1=O (stereo not drawn)
GI50 (LOX IMVI): 13.5 µM (inactive)
GI50 (K562): 5.58 µM (inactive)
GI50 (RPMI-8226): 1.95 µM (inactive)
GI50 (SN12C): > 38.9 µM (inactive)
GI50 (HT-29): 25.5 µM (inactive)
GI50 (HOP-62): > 58.2 µM (inactive)
GI50 (KM12): 11.5 µM (inactive)
GI50 (SK-MEL-2): > 45.1 µM (inactive)
GI50 (IGROV-1): > 50.4 µM (inactive)
GI50 (NCI-H522): 6.38 µM (inactive)
GI50 (HCC 2998): > 40.8 µM (inactive)
GI50 (SF-268): 31.6 µM (inactive)
GI50 (OVCAR-5): > 55.2 µM (inactive)
GI50 (NCI-H460): 17.4 µM (inactive)
GI50 (NCI-H226): > 100 µM (inactive)
GI50 (SNB-19): 37.3 µM (inactive)
GI50 (SK-OV-3): > 100 µM (inactive)
GI50 (SW-620): 24.3 µM (inactive)

C=C(CO)CC(/C=C(\C)CC/C=C(\C)CCl)OC(C)=O (stereo not drawn)
GI50 (LOX IMVI): > 100 µM (inactive)
GI50 (K562): > 100 µM (inactive)
GI50 (RPMI-8226): > 100 µM (inactive)
GI50 (SN12C): > 100 µM (inactive)
GI50 (HT-29): > 100 µM (inactive)
GI50 (HOP-62): > 100 µM (inactive)
GI50 (KM12): > 100 µM (inactive)
GI50 (SK-MEL-2): > 100 µM (inactive)
GI50 (IGROV-1): > 100 µM (inactive)
GI50 (NCI-H522): > 100 µM (inactive)
GI50 (HCC 2998): > 100 µM (inactive)
GI50 (SF-268): > 100 µM (inactive)
GI50 (OVCAR-5): > 100 µM (inactive)
GI50 (NCI-H460): > 100 µM (inactive)
GI50 (NCI-H226): > 100 µM (inactive)
GI50 (SNB-19): > 100 µM (inactive)
GI50 (SK-OV-3): > 100 µM (inactive)
GI50 (SW-620): > 100 µM (inactive)
